The values that follow come from patent US20100137346A1, “DESFE[…] ACTINIDE DEC[…]” (priority 2006, published 2010).

SMILES strings stand for the structures. Like-named read-outs stand apart in the source and are kept apart here.

A short description of series [1]: Iron-clearing efficiency (ICE) in iron-overloaded Cebus apella primate. The settings on record: orally to C. apella primates, 150 μmol/kg. Format: in vivo. How it is done:
In the text below, “iron-clearing efficiency” (ICE) [Bergeron, et al., Effects of C-4 Stereochemistry and C-4′ Hydroxylation on the Iron Clearing Efficiency and Toxicity of Desferrithiocin Analogues, J Med Chem 1999; 42:2432-2440] is used as a measure of the amount of iron excretion induced by a chelator. The ICE, expressed as a percent, is calculated as (ligand-induced iron excretion/theoretical iron excretion)×100. To illustrate, the theoretical iron excretion after administration of one millimole of desferrioxamine (DFO, 14, Table 1), a hexadentate chelator which forms a 1:1 complex with Fe(III), is one milli-g-atom of iron. Two millimoles of desferrithiocin (DFT, 1, FIG. 1), a tridentate chelator which forms a 2:1 complex with Fe(III), are required for the theoretical excretion of one milli-g-atom of iron. In clinical practice, the actual ICE of DFO (14), used to treat people with iron overload, is only 5 to 7% [Pippard, et al., Iron Chelation Using Subcutaneous Infusions of Diethylene Triamine Penta-acetic Acid (DTPA), Scand J Haematol 1986; 36:466-472; Pippard, Desferrioxamine-Induced Iron Excretion in Humans, Bailliere's Clin Haematol 1989; 2:323-343]. […]

Series [2] is described as follows: Chelator-induced uranium excretion (urine + bile, 24 h) in bile duct-cannulated rat model. Format: in vivo. In short, it runs like this: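 Bile duct-cannulated rats received uranyl acetate dihydrate subcutaneously at 5 mg/kg, equal to 2.8 mg/kg uranium, and were then given a chelator. Urine and bile were collected for 24 hours and uranium was quantified by ICPMS. Results give total uranium excreted (urine + bile), the urine/bile split, the percentage of the administered dose cleared, and excretion relative to 14 pooled uranyl acetate-only controls. Each group had at least three animals.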

Series [3] in a line: Renal uranium content in uranyl acetate-treated bile duct-cannulated rats (FIG. 3). Format: in vivo, rat. The method, then:
Desferrithiocin Analogue Induced Excretion of Uranium. In order to compare results with previous chelator-induced iron excretion data, the uranium clearance studies were carried out in a bile duct-cannulated rat model. The animals were given uranyl acetate dihydrate SC at a dose of 5 mg/kg (the actual dose of uranium is 2.8 mg/kg). Bile and urine samples were collected for 24 hours after dosing. Kidneys were removed from selected animals and tissue uranium concentration measured. At least three animals were utilized in each experimental group. Data from two separate control studies (uranyl acetate/ no chelator) have now been combined for a total of 14 control animals. All uranium concentrations were measured using ICPMS. The data are reported as the total quantity of uranium excreted [urine +bile]; the mode of excretion [urine/bile] is also given. In addition the percentage of the administered dose of uranium cleared and chelator-induced uranium excretion vs the controls is also given. Four positive controls were evaluated: DTPA (13, Table 1) given as its trisodium calcium salt, DFO (14), N,N′-bis(2hydroxybenzyl)ethylenediamine-N,N′-diacetic acid, monosodium salt (NaHBED, 15) and the hydroxypyridone CP94 (16) shown to bind uranium [Pashalidis, et al., Effective complex formation in the interaction of 1,2-dimethyl-3-hydroxypyrid-4-one (Deferiprone or L1) with uranium(VI), Journal of Radioanalytical and Nuclear Chemistry 1999; 242:181-184.] The total metal cleared after 24 h in control rats was 10% of the administered dose. When DTPA, 13, was given IP or PO at 300 μmol/kg immediately after uranium, the excretion was 17% and 8% of the administered dose respectively (p>0.05). However, when the drug was given IP at a dose of 600 μmol/kg immediately post-metal, the uranium excretion was significant, 20% (p<0.005). This is consistent with previously published data using a similar animal model.[Domingo, et al., Comparative effects of the chelators sodium 4,5-dihydroxybenzene-1,3-disulfonate (Tiron) and diethylenetriaminepentaacetic acid (DTPA) on acute uranium nephrotoxicity in rats, Toxicology 1997; 118:49-59] DFO (14) and CP94 (16) given IP immediately post uranyl acetate were ineffective.
The most promising analogue in the (S)-2-(2,4-dihydroxyphenyl)-4,5-dihydro-4-thiazolinecarboxylic series is the methoxy analogue (S)-4′-(CH3O)-DADMDFT (11). Given IP at 300 μmol/kg 0.5 h before uranyl acetate or immediately thereafter, nearly 30% of the metal was cleared (Table 1). This was also true if the drug was given IP 0.5 or 2 h post metal. The drug retains some efficacy given 4 h post uranium; 16% of the metal is excreted (p<0.006). When the chelator was given SC immediately post uranium, 40% of the administered metal was cleared. The increased excretion is probably associated with a slower absorption of the ligand. The data from rodents given the drug orally is even more encouraging (Table 1). […] The most profound data are associated with uranium decorporation from the kidneys (FIG. 3). When DTPA is given IP or PO at a dose of 300 μmol/kg immediately post metal, there is no reduction in renal uranium relative to controls. However, (S)-4′-(CH3O)-DADMDFT (11) given orally at a dose of 300 μmol/kg immediately post metal reduces renal uranium by 37% (p<0.005).
There is a small (16%) reduction when the drug is given PO at a dose of 300 μmol/kg 2 h post uranium. However, when 11 is given PO at a dose of 600 μmol/kg 0.5 h post metal, the renal uranium content is reduced by 76% (p<0.001). When given PO at the same dose 1 h post uranium exposure, the reduction is still significant, 42% (p<0.006). In all sets of ligands, the most lipophilic chelator is always the most toxic. […] On the basis of this finding, a less lipophilic, more water-soluble ligand than 12 was assembled, (S)-4′-(HO)-DADFT-PE (18, Table 1), a polyether analogue.

The nature of series [4]: GLP toxicity and pharmacokinetics profile (NIH Roadmap Program). It is filed as in vivo. From the text:
7. This same ligand (11) has now been run through the NIH Roadmap Program and a complete GLP toxicity and pharmacokinetics profile is available.

For series [5] the following is noted: cited from earlier work.
For series [6] the following is noted: cited from earlier work. This is another data set of the same source.
The conditions of series [7]: bile duct-cannulated rodent model; cited from earlier work.
For series [8] the following is noted: in vivo; cited from earlier work.
For series [9] the following is noted: rodents; cited from earlier work.

As to `COc1ccc(C2=N[C@@H](C(=O)O)CS2)c(O)c1OC` [drawing 26], the “Iron Clearing Efficiency (%)” value in [1] is 12.4 ± 6.2%. The “relative percentages of the iron excreted in the stool and urine” value in series [1] ([stool/urine]) was 94/6.
Regarding `COc1ccc(C2=N[C@@H](C(=O)O)CS2)c(O)c1` [Compound 11, (S)-2-(2-hydroxy-4-methoxyphenyl)-4,5dihydro-4-thiazolecarboxylic acid], the “% of Administered Dose Cleared” value is roughly 30% in series [2] (300 μmol/kg IP 0.5 h Post); roughly 30% in [2] (300 μmol/kg IP 0.5 h Post, listed as (S)-4′-(CH3O)-DADMDFT); roughly 30% in series [2] (300 μmol/kg IP 0.5 h Pre); roughly 30% in series [2] (300 μmol/kg IP 0.5 h Pre, listed as (S)-4′-(CH3O)-DADMDFT); roughly 30% in [2] (300 μmol/kg IP 2 h Post); 16% in series [2] (300 μmol/kg IP 4 h Post). The “% of Administered Dose Cleared” value is roughly 30% in [2] (300 μmol/kg IP Immediate); 18% in [2] (300 μmol/kg PO 2 h Post); 23% in series [2] (300 μmol/kg PO Immediate); 40% in series [2] (300 μmol/kg SC Immediate); 25% in series [2] (600 μmol/kg PO 0.5 h Post); 26% in [2] (600 μmol/kg PO 1 h Post). Besides, the “reduction in renal uranium” value in [3] (PO 300 μmol/kg 2 h post uranium) is recorded as 16%. In addition, the “reduction in renal uranium relative to controls” value in series [3] (PO 300 μmol/kg immediately post metal) stood at 37%. The results for the “reduction in renal uranium content” value in series [3] (PO 600 μmol/kg 0.5 h post metal) and in [3] (PO 600 μmol/kg 1 h post uranium exposure) were 76% and 42%, respectively. The no-observed-adverse-effect-level result in [4] is “well within the range of expected human dosing requirements”. The “metabolite formed by metabolic O-demethylation” value in series [5] (in vivo) was “(S)-4′-(HO)-DADMDFT (9)”.
On to `C[C@]1(C(=O)O)CSC(c2ncccc2O)=N1` [Compound 1, (S)-4,5-dihydro-2-(3-hydroxy-2-pyridinyl)-4methyl-4-thiazolecarboxylic acid, reference compound], for which the values for the ICE in series [6] (iron-overloaded C. apella primate) and in series [7] were 16% and 5.5%, respectively. The “toxicity, in words” value in series [8] is on record as “severely nephrotoxic”.
For the compound `COCCOCCOCCOc1ccc(C2=N[C@@](C)(C(=O)O)CS2)c(O)c1` [Compound 18, (S)-4,5-dihydro-2-[2-hydroxy-4-(3,6,9-trioxadecyloxy)phenyl]-4methyl-4-thiazolecarboxylic acid], the “% of Administered Dose Cleared” value in series [2] (300 μmol/kg IP Immediate) is recorded as 22%. The “iron-clearing efficiency, in words” value in series [6] (in both rodents and primates) is given as “highly efficient iron chelator”. Moreover, in [5] (rodents), the “kidney concentration versus 10” value is “significantly lower concentrations in the kidney” and the “liver concentration versus 10” value was “higher concentrations in the liver”. Moreover, the “tolerability versus 10” value in series [9] was “more tolerable”.
